Test results reported in patent US10662203B2, “Pyrido[2,3-b]indole compounds for the treatment and prophylaxis of bacterial infection” (Hoffmann-La Roche Inc., priority 2017, dated 2020).
≈ marks a conversion by molar mass, not a printed value.

Assays:
[1] = Single dose PK study (SDPK) in female CD-1 mouse; format: in vivo; conditions: MOUSE IV, 1.0 mg/kg-Solution; for clearance: female, CD-1, plasma, read-out: CL total
Experimental: Single Dose PK Study (SDPK) in Female CD-1 Mouse: The single dose PK in female CD-1 mouse was performed to assess compound's pharmacokinetic properties. One group of animals were dosed via bolus intravenous (IV) of the respective compound. Blood samples (approximately 30 μL) were collected via saphenous vein at 5 mins, 15 min, 30 min, 1 hr, 2 hr, 4 hr and 7 hr. For last time point (24 hr), samples were collected via cardiac puncture while the mouse was under anesthesia. Blood samples were placed into tubes containing EDTA-K2 anticoagulant (2 μL of 0.5M per tube) and centrifuged at 3000 rpm for 10 minutes at 4° C. within half an hour to separate plasma from the samples. Following centrifugation, plasma samples were stored in polypropylene tubes, quick frozen over dry ice and kept at −70±10° C. until LC/MS/MS analysis. The pharmacokinetic parameters were calculated using non-compartmental module of WinNonlin® Professional 6.4.

S. aureus (ATCC29213) = test: 50% growth inhibitory concentration (IC50) determination assay; format: cell-based; conditions: Staphylococcus aureus, Iso-Sensitest broth, 0.098 = detection limit
Summary of the method: (§1)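 Growth was tracked as optical density at 600 nm every 20 minutes for 16 h at 35±2° C, giving IC50 values. Inocula of ~5×10^5 CFU/mL in Iso-Sensitest broth faced two-fold compound dilutions spanning 50 to 0.097 μM final.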

[2] = test system: K. pneumoniae (ATCC10031); test: as above; format: cell-based; conditions: Klebsiella pneumoniae, Iso-Sensitest broth, 0.098 = detection limit
Summary of the method: as §1

A. baumannii (ATCC17978) = test: as above; format: cell-based; conditions: Acinetobacter baumannii, ATCC17978, A. baumannii ATCC17978; Iso-Sensitest broth; 0.098 = detection limit
Summary of the method: as §1

[3] = Lyophilisation solubility assay (LYSA); format: physicochemical; conditions: phosphate buffer, pH 6.5, aqueous buffer, thermodynamic from solid, 0.05 M phosphate buffer, HPLC-UV
Summary of the method: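 Duplicate samples made from 10 mM DMSO stock. DMSO evaporated and the residue taken up in 0.05 M phosphate buffer, pH 6.5, stirred 1 h and shaken 2 h, then left overnight. Filtrate and its 1/10 dilution quantified by HPLC-UV.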

[4] = test system: multiple species and strains; test: Minimal inhibitory concentration (MIC) and MIC90 determination, broth microdilution (CLSI M07-A10); conditions: S9: P. aeruginosa ATCC BAA-2113
Experimental: Minimal Inhibitory Concentration (MIC) and MIC90 Determination:
The MIC of antibacterial compounds against multiple species and strains was determined using the broth microdilution method according to M07-A10 Clinical and Laboratory Standards Institute (CLSI) guidelines (CLSI (2015) Methods for dilution antimicrobial susceptibility tests for bacteria that grow aerobically; Approved Standard, Tenth Edition. CLSI Document M7-A10 (ISBN 1-56238-987-4). Wayne, Pa.: Clinical and Laboratory Standards Institute, 19087, USA.). In short, bacterial strain preparation was performed on D1 and D2. […] 5-10 well-isolated colonies of similar morphology were selected and re-streaked onto fresh agar plates using sterile loops and incubated for 20-24 hr at 35±2° C. Bacterial strains were subcultured two times to ensure fresh inoculums for MIC screening. […] Alternatively, 1-2 colonies were transferred into 500 μL of saline and OD600 was adjusted to ˜0.1 using an OD meter. Bacterial inoculum was diluted by 1:280 for Gram-positive strains and 1:400 for Gram-negative strains into corresponding medium broth (CAMHB, CAMHB+3% lysed horse blood, HTM) (e.g. 35.6 μL of inoculum into 10 mL of CAMHB or 25 μL of inoculum into 10 mL of CAMHB). […] Compound stock concentration=[(highest testing concentration)×100 μL/2 μL] (e.g. if the required highest testing concentration is 64 μg/mL in assay plates, stock concentration=64 μg/mL×100 μL/2 μL=3.2 mg/mL). […] of each well was transferred in a new MTP, which served as the test plate by subsequent inoculation. The bacterial suspension prepared above is dispensed at 98 μL/well within 15 minutes after preparation. Negative controls (lack of bacterial cells) and growth control wells (lack of compound) were included in all plates. MTPs were incubated for 18-24 hours at 35±2° C. in ambient air. The MIC was recorded and CFUs were calculated on Day 4. The assay plate was placed on the top of MIC reader, and the magnification mirror was adjusted to read each wells, recording growth status as raw data. Photo images of each assay plates were recorded using Q Count 530 (Spiral Biotech). The MIC value of each compound, expressed as […], was determined as the lowest concentration required for complete growth inhibition (no visible growth).

[5] = Cytotoxicity assay (HepG2, CellTiter-Blue cell viability); format: cell-based; conditions: human; HepG2 cells, 3 days treatment; "*": the detection limit; read-out: CC50
Summary of the method: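 HepG2 cells (1.2×10^4 per well) exposed to compounds for 3 days; viability then read by CellTiter-Blue fluorescence after 3 h at 37 °C. CC50 from four-parameter logistic fit.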

Work on `CNc1cc(F)c(F)c2c1[nH]c1ncc(-c3cnc4c(c3)c(=O)c(C(=O)O)cn4C)c(N3CCC4(CN(C)CCO4)C3)c12` (centres unmarked) [Example 1.202] yielded an AUC total [1] of 167.5 ng·h/mL, a clearance [1] of 98.1 mL/min/kg and an IC50 (S. aureus (ATCC29213)) of under 0.098 µM. The IC50 [2] was under 0.098 µM and the IC50 (A. baumannii (ATCC17978)) was 0.16 µM.
Compound `CNc1cc(F)c(F)c2c1[nH]c1ncc(-c3cnc4c(c3)c(=O)c(C(=O)O)cn4C)c(N3CC(N(C)C)C4(CC4)C3)c12` (centres unmarked) [Example 1.207] has an AUC total [1] of 188.3 ng·h/mL, a clearance [1] of 85.7 mL/min/kg and an IC50 (S. aureus (ATCC29213)) of 0.101 µM. The IC50 [2] was under 0.098 µM, the IC50 (A. baumannii (ATCC17978)) was 0.203 µM and the solubility thermodynamic [3] was 73 µg/mL (≈ 127 µM).
Work on `CNc1cc(F)c(F)c2c1[nH]c1ncc(-c3cnc4c(c3)c(=O)c(C(=O)O)cn4C)c(N3CC4[C@@H](C3)OCCN4C)c12` (some centres unmarked) [Example 1.241] yielded an AUC total [1] of 196.3 ng·h/mL, a clearance [1] of 84.3 mL/min/kg and an IC50 (S. aureus (ATCC29213)) of under 0.098 µM. It also gave an IC50 [2] of under 0.098 µM and an IC50 (A. baumannii (ATCC17978)) of 0.095 µM.
In the case of `CNc1cc(F)c(C#N)c2c1[nH]c1ncc(-c3cnc4c(c3)c(=O)c(C(=O)O)cn4C)c(N3CC[C@H]4CN(C)CC43)c12` (some centres unmarked) [Example 1.274], the “MIC S9” value [4] is reported as 8.508, the IC50 (A. baumannii (ATCC17978)) is reported as 0.117 µM and the solubility thermodynamic [3] is reported as 118 µg/mL (≈ 208 µM).
In the case of `CNc1cc(F)c(C#N)c2c1[nH]c1ncc(-c3cnc4c(c3)c(=O)c(C(=O)O)cn4NC)c(N3CC[C@H]4CN(C)CC43)c12` (some centres unmarked) [Example 1.275], the “MIC S9” value [4] is reported as 4.348 and the IC50 (A. baumannii (ATCC17978)) is reported as 0.281 µM.
With `CNc1cc(F)c(F)c2c1[nH]c1ncc(-c3cnc4c(c3)c(=O)c(C(=O)O)cn4C)c(N3CC4C(N(C)C)CO[C@@H]4C3)c12` (some centres unmarked) [Example 1.286] the “MIC S9” value [4] was 3.973 and the IC50 (A. baumannii (ATCC17978)) was 0.143 µM.
With `CNc1cc(F)c(F)c2c1[nH]c1ncc(-c3cnc4c(c3)c(=O)c(C(=O)O)cn4NC)c(N3CC[C@@H]4CN(C)C[C@@H]43)c12` [Example 3.01B, 6-[5,6-difluoro-8-(methylamino)-4-[(3aR,6aR)-5-methyl-2,3,3a,4,6,6a-hexahydropyrrolo[2,3-c]pyrrol-1-yl]-9H-pyrido[2,3-b]indol-3-yl]-1-(methylamino)-4-oxo-1,8-naphthyridine-3-carboxylic acid] the CC50 at 3 days [5] was 39.4 µM, the AUC total [1] was 156.1 ng·h/mL and the clearance [1] was 105 mL/min/kg. For the same compound, the IC50 (S. aureus (ATCC29213)) was 0.168 µM, the IC50 [2] was under 0.098 µM and the IC50 (A. baumannii (ATCC17978)) was 0.56 µM. The solubility thermodynamic [3] was 265 µg/mL (≈ 461 µM).
For `CNc1cc(F)c(F)c2c1[nH]c1ncc(-c3cnc4c(c3)c(=O)c(C(=O)O)cn4C)c(N3CCC[C@@H](N(C)C)C3)c12` [Example 3.06A], the CC50 at 3 days [5] was 52.5 µM, the IC50 (S. aureus (ATCC29213)) was under 0.098 µM and the IC50 [2] was under 0.098 µM. It also gave an IC50 (A. baumannii (ATCC17978)) of 0.102 µM and a solubility thermodynamic [3] of 66 µg/mL (≈ 118 µM).
For `CNc1cc(F)c(F)c2c1[nH]c1ncc(-c3cnc4c(c3)c(=O)c(C(=O)O)cn4C)c(N3CCC[C@H](N(C)C)C3)c12` [Example 3.06B], the CC50 at 3 days [5] was 40.2 µM, the IC50 (S. aureus (ATCC29213)) was under 0.098 µM and the IC50 [2] was under 0.098 µM. It also gave an IC50 (A. baumannii (ATCC17978)) of 0.176 µM and a solubility thermodynamic [3] of 85 µg/mL (≈ 151 µM).
`CNc1cc(F)c(F)c2c1[nH]c1ncc(-c3cnc4c(c3)c(=O)c(C(=O)O)cn4NC)c(N3C[C@H]4CCN(C)[C@H]4C3)c12` [Example 3.07A] gave a CC50 at 3 days [5] of over 100 µM, an AUC total [1] of 214.0 ng·h/mL and a clearance [1] of 77.4 mL/min/kg. For the same compound, the IC50 (S. aureus (ATCC29213)) was under 0.098 µM, the IC50 [2] was under 0.098 µM and the IC50 (A. baumannii (ATCC17978)) was 0.076 µM. For the same compound, the solubility thermodynamic [3] was 20 µg/mL (≈ 34.8 µM).
For `CNc1cc(F)c(F)c2c1[nH]c1ncc(-c3cnc4c(c3)c(=O)c(C(=O)O)cn4C)c(N3C[C@H]4CCN(C)[C@H]4C3)c12` [Example 3.08A], the AUC total [1] was 190.5 ng·h/mL, the clearance [1] was 86.7 mL/min/kg and the IC50 (S. aureus (ATCC29213)) was under 0.098 µM. The IC50 [2] was under 0.098 µM, the IC50 (A. baumannii (ATCC17978)) was 0.049 µM and the solubility thermodynamic [3] was 119 µg/mL (≈ 213 µM).
